Structures can show the parent of a compound that is named as a salt.
Legend:
[1] = tested on: RS4;11 leukaemia tumour line; assay: In vitro cytotoxicity, Microculture Tetrazolium Assay (MTT); format: cell-based; settings: Homo sapiens; RS4;11 cells, 48 hours exposure
Experimental: The cytotoxicity studies were carried out on the RS4;11 leukaemia tumour line.
The cells are distributed onto microplates and exposed to the test compounds for 48 hours. The cell viability is then quantified by a colorimetric assay, the Microculture Tetrazolium Assay (Cancer Res., 1987, 47, 939-942).

[2] = target: Bcl-2 protein (histag-Bcl-2, UniProtKB P10415) (Homo sapiens (Human), UniProt P10415); assay: Inhibition of Bcl-2 by the fluorescence polarisation technique; format: binding; settings: fluorescence polarisation test; method A, or method B where underlined (underlining not visible); read-out: IC50 (nM) Bcl-2 FP
From the text: Inhibition of Bcl-2 by the fluorescence polarisation technique

Bcl-2 protein, sequence (P10415 whole entry): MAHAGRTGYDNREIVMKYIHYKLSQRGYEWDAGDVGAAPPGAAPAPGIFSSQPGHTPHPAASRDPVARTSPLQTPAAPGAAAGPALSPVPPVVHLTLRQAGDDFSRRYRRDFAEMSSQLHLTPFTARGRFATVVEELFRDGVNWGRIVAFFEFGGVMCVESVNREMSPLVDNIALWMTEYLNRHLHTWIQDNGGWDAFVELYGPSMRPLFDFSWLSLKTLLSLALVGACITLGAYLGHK

IC50 [2] | SMILES | IC50 [1]
3.7 nM | Cc1cc(C(=O)N(c2ccc(O)cc2)c2ccc(O)cc2)cn1-c1cc2c(cc1C(=O)N1Cc3ccccc3C[C@H]1CN1CCN(C)CC1)OCO2 [Example 83, N,N-bis(4-Hydroxyphenyl)-5-methyl-1-(6-{[(3S)-3-[(4-methylpiperazin-1-yl)methyl]-3,4-dihydroisoquinolin-2(1H)-yl]carbonyl}-1,3-benzodioxol-5-yl)-1H-pyrrole-3-carboxamide] | 350 nM
4.1 nM | Cc1c(C(=O)N(c2ccc(O)cc2)c2cnc3c(ccn3C)c2)cn(-c2cc(Cl)ccc2C(=O)N2Cc3ccccc3C[C@H]2CN2CCOCC2)c1C [Example 209, 1-(5-Chloro-2-{[(3S)-3-(morpholin-4-ylmethyl)-3,4-dihydroisoquinolin-2(1H)-yl]carbonyl}phenyl)-N-(4-hydroxyphenyl)-4,5-dimethyl-N-(1-methyl-1H-pyrrolo[2,3-b]pyridin-5-yl)-1H-pyrrole-3-carboxamide hydrochloride] | 62.9 nM
11.4 nM | COc1ccc(C(=O)N2Cc3ccccc3C[C@H]2CN2CCN(C)CC2)c(-n2cc(C(=O)N(c3ccccc3)c3ccc(O)cc3)c3ccccc32)c1 [Example 168, N-(4-Hydroxyphenyl)-1-{5-methoxy-2-[(3S)-3-[(4-methylpiperazin-1-yl)methyl]-1,2,3,4-tetrahydroisoquinoline-2-carbonyl]phenyl}-N-phenyl-1H-indole-3-carboxamide dihydrochloride] | 188 nM
4.4 nM | Cc1cc(C(=O)N(c2ccc(O)cc2)c2ccc3c(ccn3C)c2)cn1-c1cc2c(cc1C(=O)N1Cc3ccccc3C[C@H]1CN1CCOCC1)OCO2 [Example 109, N-(4-Hydroxyphenyl)-5-methyl-N-(1-methyl-1H-indol-5-yl)-1-(6-{[(3S)-3-(morpholin-4-ylmethyl)-3,4-dihydroisoquinolin-2(1H)-yl]carbonyl}-1,3-benzodioxol-5-yl)-1H-pyrrole-3-carboxamide hydrochloride] | 116 nM
56.7 nM | CN(C)c1ccc(-n2nc(C(=O)N(c3ccccc3)c3ccccc3)c3ccccc32)c(C(=O)N2Cc3ccccc3C[C@H]2CN)c1 [Example 141, 1-{2-[(3S)-3-(Aminomethyl)-1,2,3,4-tetrahydroisoquinoline-2-carbonyl]-4-(dimethylamino)phenyl}-N,N-diphenyl-1H-indazole-3-carboxamide] | 2280 nM
57.2 nM | Cc1ccc(N(C(=O)c2cn(-c3cc4c(cc3C(=O)N3Cc5ccccc5C[C@H]3CN3CCN(C)CC3)OCO4)c3ccccc23)c2ccc3[nH]ccc3c2)cc1 [Example 55, N-(1H-Indol-5-yl)-N-(4-methylphenyl)-1-(6-{[(3S)-3-[(4-methylpiperazin-1-yl)methyl]-3,4-dihydroisoquinolin-2(1H)-yl]carbonyl}-1,3-benzodioxol-5-yl)-1H-indole-3-carboxamide] | 1020 nM
3.7 nM | CN1CCN(C[C@@H]2Cc3ccccc3CN2C(=O)c2cc(F)c(Cl)cc2-n2cc(C(=O)N(c3ccc(O)cc3)c3ccc4c(ccn4C)c3)c3ccccc32)CC1 [Example 78, 1-(5-Chloro-4-fluoro-2-{[(3S)-3-[(4-methylpiperazin-1-yl)methyl]-3,4-dihydroisoquinolin-2(1H)-yl]carbonyl}phenyl)-N-(4-hydroxyphenyl)-N-(1-methyl-1H-indol-5-yl)-1H-indole-3-carboxamide hydrochloride] | 81.4 nM
16.8 nM | CN1CCN(C[C@@H]2Cc3ccccc3CN2C(=O)c2cc3c(cc2-n2cc(C(=O)N(c4ccccc4)c4ccc(O)cc4)c4ccccc42)OC[C@H](COCc2ccccc2)O3)CC1 [Example 188, 1-[(2S)-2-[(Benzyloxy)methyl]-7-[(3S)-3-[(4-methylpiperazin-1-yl)-methyl]-1,2,3,4-tetrahydroisoquinoline-2-carbonyl]-2,3-dihydro-1,4-benzodioxin-6-yl]-N-(4-hydroxyphenyl)-N-phenyl-1H-indole-3-carboxamide] | 68 nM
3.4 nM | COc1cc(-n2cc(C(=O)N(c3ccccc3)c3ccc4[nH]ccc4c3)c3ccccc32)c(C(=O)N2Cc3ccccc3C[C@H]2CN2CCN(C)CC2)cc1O [Example 198, 1-{4-Hydroxy-5-methoxy-2-[(3S)-3-[(4-methylpiperazin-1-yl)methyl]-1,2,3,4-tetrahydroisoquinoline-2-carbonyl]phenyl}-N-(1H-indol-5-yl)-N-phenyl-1H-indole-3-carboxamide] | 616 nM
25 nM | CNc1ccc(-n2nc(C(=O)N(c3ccccc3)c3ccccc3)c3ccccc32)c(C(=O)N2Cc3ccccc3C[C@H]2CN)c1 [Example 140, 1-{2-[(3S)-3-(Aminomethyl)-1,2,3,4-tetrahydroisoquinoline-2-carbonyl]-4-(methylamino)phenyl}-N,N-diphenyl-1H-indazole-3-carboxamide] | 1840 nM
17.3 nM | CCC1COc2cc(-n3cc(C(=O)N(c4ccccc4)c4ccc(O)cc4)c4ccccc43)c(C(=O)N3Cc4ccccc4C[C@H]3CN3CCN(C)CC3)cc2O1 (stereo partly drawn) [Example 185, 1-{2-Ethyl-7-[(3S)-3-[(4-methylpiperazin-1-yl)methyl]-1,2,3,4-tetrahydroisoquinoline-2-carbonyl]-2,3-dihydro-1,4-benzodioxin-6-yl}-N-(4-hydroxyphenyl)-N-phenyl-1H-indole-3-carboxamide] | 422 nM
10.5 nM | CN1CCN(C[C@@H]2Cc3ccccc3CN2C(=O)c2ccc(Br)cc2-n2cc(C(=O)N(c3ccc(O)cc3)c3ccc4[nH]ccc4c3)c3ccccc32)CC1 [Example 48, 1-(5-Bromo-2-{[(3S)-3-[(4-methylpiperazin-1-yl)methyl]-3,4-dihydroisoquinolin-2(1H)-yl]carbonyl}phenyl)-N-(4-hydroxyphenyl)-N-(1H-indol-5-yl)-1H-indole-3-carboxamide] | 93.9 nM
4.8 nM | CCn1ccc2cc(N(C(=O)c3cn(-c4cc5c(cc4C(=O)N4Cc6ccccc6C[C@H]4CN4CCN(C)CC4)OCO5)c4ccccc34)c3ccc(O)cc3)ccc21 [Example 99, N-(1-Ethyl-1H-indol-5-yl)-N-(4-hydroxyphenyl)-1-(6-{[(3S)-3-[(4-methylpiperazin-1-yl)methyl]-3,4-dihydroisoquinolin-2(1H)-yl]carbonyl}-1,3-benzodioxol-5-yl)-1H-indole-3-carboxamide] | 41.7 nM
841 nM | NC[C@@H]1Cc2ccccc2CN1C(=O)c1ccccc1-n1nc(C(=O)N(c2ccccc2)c2ccccc2)c2ccc(C(=O)O)cc21 [Example 133, 1-{2-[(3S)-3-(Aminomethyl)-1,2,3,4-tetrahydroisoquinoline-2-carbonyl]-phenyl}-3-(diphenylcarbamoyl)-1H-indazole-6-carboxylic acid] | 
3.5 nM | CN1CCN(C[C@@H]2Cc3ccccc3CN2C(=O)c2cc3c(cc2-n2cc(C(=O)N(c4ccc(O)cc4)c4ccc(F)cc4)c4ccccc42)OCO3)CC1 [Example 35, N-(4-Fluorophenyl)-N-(4-hydroxyphenyl)-1-(6-{[(3S)-3-[(4-methylpiperazin-1-yl)methyl]-3,4-dihydroisoquinolin-2(1H)-yl]carbonyl}-1,3-benzodioxol-5-yl)-1H-indole-3-carboxamide] | 68.9 nM
24.8 nM | Cc1cc(C(=O)N(c2ccccc2)c2ccc(O)cc2)cn1-c1cc(F)ccc1C(=O)N1Cc2ccccc2C[C@H]1CN(C)C [Example 14, 1-(2-{[(3S)-3-[(Dimethylamino)methyl]-3,4-dihydroisoquinolin-2(1H)-yl]carbonyl}-5-fluorophenyl)-N-(4-hydroxyphenyl)-5-methyl-N-phenyl-1H-pyrrole-3-carboxamide] | 1270 nM
19.6 nM | CN1CCN(C[C@@H]2Cc3ccccc3CN2C(=O)c2cc3c(cc2-n2cc(C(=O)N(c4ccc(O)cc4)c4ccc5[nH]ccc5c4)c4cc(Cl)ccc42)OCO3)CC1 [Example 88, 5-Chloro-N-(4-hydroxyphenyl)-N-(1H-indol-5-yl)-1-(6-{[(3S)-3-[(4-methylpiperazin-1-yl)methyl]-3,4-dihydroisoquinolin-2(1H)-yl]carbonyl}-1,3-benzodioxol-5-yl)-1H-indole-3-carboxamide] | 541 nM
8.4 nM | Cc1cc(C(=O)N(c2ccc(O)cc2)c2ccc3[nH]ccc3c2)cn1-c1cc(Br)ccc1C(=O)N1Cc2ccccc2C[C@H]1CN1CCN(C2CCC2)CC1 [Example 102, 1-(5-Bromo-2-{[(3S)-3-[(4-cyclobutylpiperazin-1-yl)methyl]-3,4-dihydroisoquinolin-2(1H)-yl]carbonyl}phenyl)-N-(4-hydroxyphenyl)-N-(1H-indol-5-yl)-5-methyl-1H-pyrrole-3-carboxamide] | 108 nM
87.6 nM | Cc1cc(C(=O)N(c2ccccc2)c2ccc(O)cc2)cn1-c1ccc(Cl)cc1C(=O)N1Cc2ccccc2C[C@H]1CN1CCN(C)CC1 [Example 25, 1-(4-Chloro-2-{[(3S)-3-[(4-methylpiperazin-1-yl)methyl]-3,4-dihydroisoquinolin-2(1H)-yl]carbonyl}phenyl)-N-(4-hydroxyphenyl)-5-methyl-N-phenyl-1H-pyrrole-3-carboxamide] | 1100 nM
71.5 nM | CN(C)C[C@@H]1Cc2ccccc2CN1C(=O)c1ccccc1-n1cc(C(=O)N(c2ccccc2)c2ccc(O)cc2)c2ccccc21 [Example 143, 1-{2-[(3S)-3-[(Dimethylamino)methyl]-1,2,3,4-tetrahydroisoquinoline-2-carbonyl]phenyl}-N-(4-hydroxyphenyl)-N-phenyl-1H-indole-3-carboxamide] | 533 nM
8.3 nM | CN1CCN(C[C@@H]2Cc3ccccc3CN2C(=O)c2cc(O)c(O)cc2-n2cc(C(=O)N(c3ccccc3)c3ccc(O)cc3)c3ccccc32)CC1 [Example 183, 1-{4,5-Dihydroxy-2-[(3S)-3-[(4-methylpiperazin-1-yl)methyl]-1,2,3,4-tetrahydroisoquinoline-2-carbonyl]phenyl}-N-(4-hydroxyphenyl)-N-phenyl-1H-indole-3-carboxamide] | 
